# Values quoted from earlier work, collected in US10729634B2, “Sex hormone-binding globulin for use as a medicament” (FUNDACIÓ HOSPITAL UNIVERSITARI VALL D'HEBRON—INSTITUT DE …, priority 2013, dated 2020).
# Legend:
# [1] = tested on: HepG2 hepatoblastoma cells; conditions: positive control, 3 μM; cited from earlier work
# [2] = cited from earlier work
smiles,measurement,setting,value
CC(C)NCC(O)c1ccc(O)c(O)c1 (stereo not shown) [Isoproterenol],lipolysis,[1],induces lipolysis
C[C@H]1CNCCc2ccc(Cl)cc21 [Lorcaserin],average weight loss greater than placebo,[2]; over a year,3.1 kg
same,"average weight loss greater than placebo, of body mass",[2]; over a year,3%
CCCCCCCCCCC[C@@H](C[C@@H]1OC(=O)[C@H]1CCCCCC)OC(=O)[C@H](CC(C)C)NC=O [orlistat],side effects,[2]; in vivo,associated with gastrointestinal side effects
